Reference: US20260069629A1, “RECEPTACLE, DEVICE FOR RELEASING CARBON MONOXIDE, TREATMENT SYSTEM, SET FOR TREATING LIVING CELLS, METHOD OF TREATING A MAMMAL, AND CARBON MONOXIDE” (Julius-Maximilians-Universität Würzburg, in Vertretung des …, priority 2022, published 2026)

Tests used:
[1] = Carbon monoxide release from the receptacle after combining main substance and activation substance; format: physicochemical
Experimental: Carbon monoxide (CO) release was 1.30 mL, 0.95 mL, 0.44 mL, and 0.23 mL corresponding to 15 mg, 10 mg, 5 mg, and 2.5 mg of the main substance 42 (“Mo-CORM”), respectively.
Carbon monoxide (CO) release ranged from 0.95 mL to 0.34 mL corresponding to 50 μL to 10 μL of the activation substance 44 (“FeCl”), respectively.

human semen/spermatozoa [2] = test: Static oxidation-reduction potential (sORP) of spermatozoa incubated with/without CO, MiOXSYS (Example 1); format: cell-based; details: two-compartment capsule, 15 mg Mo-CORM, 90 minutes at 25-35° C.; vs samples not contacted with CO (woCO=1); FIG. 10
Experimental: (§1) In this example, the capsule (18-22 mm in length and 6-8 mm diameter) loaded with 15 mg of CO-releasing molecules (Mo-CORM) and 150 μl of an aqueous FeCl3 solution (583.3 mg/ml) was used for the preservation of a 0.7 mL to about 2.9 mL sample in a standard 15 mL Falcon tube.
(§2) Between 1.46 mL and 5.7 mL human semen/spermatozoa were collected from healthy males of between 25 and 50 years of age in 100 mL sample vials on site. Samples were then divided into two equal fractions each for subsequent incubation with CO (wCO) and without CO (woCO). In order to estimate the spermatozoa concentration in the samples and to establish an initial baseline for each sample, a routine spermiogram was performed before samples were transferred to gas-tight 15 mL Falcon tubes. Samples were incubated at 25-35° C. for 90 minutes with and without an activated capsule system in a closed container. During this incubation period liquefaction took place naturally. The samples were then analyzed for total motility, progressive motility, static oxidation-reduction potential, and for DNA fragmentation.
A Male Infertility Oxidative System (MiOXSYS, Englewood, CO) was used to determine static oxidation-reduction potential (sORP) levels. 30 μL of the sperm samples were transferred to the sample application port on a MiOXSYS sensor and analyzed for 2 minutes. […]

human semen/spermatozoa [3] = test: DNA fragmentation of spermatozoa incubated with/without CO, Halo Sperm G2 Kit (Example 1); format: cell-based; details: two-compartment capsule, 15 mg Mo-CORM, 90 minutes at 25-35° C.; vs samples not contacted with CO (woCO=1); FIG. 11
Experimental: as §1
as §2, with “During this incubation period liquefaction took place naturally.” left out
To determine DNA fragmentation a count-based microscopy assay was performed. For this spermatozoa samples were diluted using MHM-C (Multipurpose Handling Medium-Complete, FujiFilm, IrvineScientific) to a maximum of 20×E6 spermatozoa per mL and analyzed using a Halo Sperm G2 Kit (Halotech, Madrid, Spain). […] At least 300 spermatozoa were then analyzed using a bright field microscope. […]

human semen/spermatozoa [4] = test: Progressive motility of spermatozoa incubated with/without CO, CASA (Example 1); format: cell-based; details: two-compartment capsule, 15 mg Mo-CORM, 90 minutes; vs spermatozoa not contacted with CO
Experimental: as §1
as §2, with “Samples were incubated at 25-35° C. for 90 minutes with and without an activated capsule system in a closed container. During this incubation period liquefaction took place naturally.” left out
Total motility, progressive motility and concentration of the samples were assessed using a CEROS II (Hamilton Thorne, Beverly, MA) computer assisted sperm analysis (CASA) system. 6 μL of a sperm sample diluted 1:1 with Multipurpose Handling Medium-Complete (MHM-C, FujiFilm/IrvineScientific, Santa Ana, CA) was measured and the concentration and level of mobility (total and progressive motility) was assessed.

Human sperm = test: Static oxidation-reduction potential (sORP) of sperm treated with single-chamber receptacles, MiOXSYS (Example 2); format: cell-based; details: vs untreated, results expressed in mV/10^6 sperm/mL, FIG. 12
Experimental: Example 2 illustrates the improvement of spermatozoan viability parameters (namely, oxidation-reduction potential) in response to different carbon monoxide (CO) incubation durations. Sperm form the same subject was either treated with carbon monoxide or left untreated, as “untreated” control. Treatments with CO varied in duration (60, 90, 180, or 270 min).
In this example, sperm samples were treated with either one, three, or six receptacles/capsules, each loaded with 5 mg Mo-CORM (corresponds to 0.44 mL CO) for 60 to 270 mins, or left untreated for the same amount of time.
Human sperm was collected from healthy volunteers in 100 mL specimen containers. Afterwards, the ejaculate was split into equal parts and filled into 15 mL gas tight falcon tubes, with one of the samples being exposed to one or more activated receptacles/capsules. Then, both samples were analyzed for static oxidation-reduction potential (sORP) via MiOXSYS after a predetermined time.
An oxidative male infertility measuring System (MiOXSYS, Englewood, CO) was used to determine static oxidation-reduction potential (sORP) levels following manufacturer's specifications. 30 μL of sample were transferred to the sample application port onto a MiOXSYS sensor and analyzed for 2 minutes. The results were expressed in milli Volt (mV) and normalized to the seminal sperm concentration (mV/10^6 sperm/mL).

Molecule | released amount/volume of carbon monoxide (CO) from the receptacle ([1]; 2.5 mg of the main substance (Mo-CORM), FIG. 9A) [mL] | released amount/volume of carbon monoxide (CO) from the receptacle ([1]; 5 mg of the main substance (Mo-CORM), FIG. 9A) [mL] | released amount/volume of carbon monoxide (CO) from the receptacle ([1]; 10 mg of the main substance (Mo-CORM), FIG. 9A) [mL] | released amount/volume of carbon monoxide (CO) from the receptacle ([1]; 15 mg of the main substance (Mo-CORM), FIG. 9A) [mL] | released amount/volume of carbon monoxide (CO) from the receptacle ([1]; 10 μL of the activation substance (FeCl), FIG. 9B) [mL] | released amount/volume of carbon monoxide (CO) from the receptacle ([1]; 50 μL of the activation substance (FeCl), FIG. 9B) [mL] | Relative oxidation-reduction-potential (sORP wCO / sORP woCO) (human semen/spermatozoa [2]) | Relative DNA fragmentation (wCO / woCO) (human semen/spermatozoa [3]) | progressive motility of spermatozoa (human semen/spermatozoa [4]) | oxidation-reduction potential (sORP) of treated gametes (Human sperm; subject 38_7, contacted with carbon monoxide for 60 min) | oxidation-reduction potential (sORP) of treated gametes (Human sperm; subject 42_1, contacted with carbon monoxide for 90 min)
trisodiumtricarbonyl-[tris(isocyanoethylacetate)]molybdenum [Mo-CORM] | 0.23 | 0.44 | 0.95 | 1.30 | 0.34 | 0.95 | – | – | – | – | –
[C-]#[O+] [CO, carbon monoxide] | – | – | – | – | – | – | trend to be lower | reduced | improvement | drastic reduction | drastic reduction
